Experimental data reported in BindingDB's records for patent US20250313563 (The Broad Institute, 2025).
Values joined by “and” are separate entries in the source; they are usually repeats but may differ in a detail not shown here. Identical values can stand only once. One block for each molecule: values may come before it.

What was measured:
[1] = target: Glycogen synthase kinase-3 alpha (Homo sapiens, UniProt P49840); assay: TR-FRET Assay
Method in brief: (§1)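 Signal is measured as TR-FRET between a terbium anti-phospho-Ser641 antibody and streptavidin-d2, added after an EDTA quench. Compounds are preincubated 30 min in assay buffer.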

[2] = target: Glycogen synthase kinase-3 beta (Homo sapiens, UniProt P49841); assay: TR-FRET Assay
Sequence of Glycogen synthase kinase-3 beta (P49841 whole entry): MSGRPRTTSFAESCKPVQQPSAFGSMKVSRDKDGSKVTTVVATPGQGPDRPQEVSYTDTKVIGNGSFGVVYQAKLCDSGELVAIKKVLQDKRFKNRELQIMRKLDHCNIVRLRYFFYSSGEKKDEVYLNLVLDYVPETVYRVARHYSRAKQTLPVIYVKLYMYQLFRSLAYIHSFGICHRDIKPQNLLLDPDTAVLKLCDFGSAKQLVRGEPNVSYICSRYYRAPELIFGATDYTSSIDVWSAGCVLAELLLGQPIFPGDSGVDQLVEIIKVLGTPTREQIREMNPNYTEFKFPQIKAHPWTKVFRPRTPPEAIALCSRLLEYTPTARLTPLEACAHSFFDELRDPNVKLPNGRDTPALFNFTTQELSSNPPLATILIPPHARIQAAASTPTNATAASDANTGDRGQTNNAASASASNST
Method in brief: as §1

Sequence of Glycogen synthase kinase-3 alpha (P49840 whole entry): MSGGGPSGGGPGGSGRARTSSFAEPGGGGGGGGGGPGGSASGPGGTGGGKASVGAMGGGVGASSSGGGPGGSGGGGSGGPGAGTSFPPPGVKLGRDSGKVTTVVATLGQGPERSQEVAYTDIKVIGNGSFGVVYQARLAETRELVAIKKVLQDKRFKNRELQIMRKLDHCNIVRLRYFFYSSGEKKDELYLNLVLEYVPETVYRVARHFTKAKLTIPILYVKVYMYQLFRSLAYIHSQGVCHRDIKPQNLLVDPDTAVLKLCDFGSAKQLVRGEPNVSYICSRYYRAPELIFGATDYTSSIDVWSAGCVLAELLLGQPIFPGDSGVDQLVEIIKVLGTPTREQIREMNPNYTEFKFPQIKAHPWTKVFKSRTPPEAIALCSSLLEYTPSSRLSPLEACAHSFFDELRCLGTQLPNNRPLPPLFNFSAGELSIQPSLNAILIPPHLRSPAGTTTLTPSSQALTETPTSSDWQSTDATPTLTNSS

Structure (SMILES): CC[C@]1(c2cccc(-c3ccncc3O)c2)C2=CN=NC2NC2=C1C(=O)CC(C)(C)C2 (some centres not stated) [US20250313563, Compound 945728]
IC50 [1]: 1 to 5 µM
IC50 [2]: > 5 µM

Structure (SMILES): CCC1(c2cccc(CN(C)C(=O)C(C)C)c2)C2=CN=NC2NC2=C1C(=O)CC(C)(C)C2 (configuration not stated) [US20250313563, Compound 865195]
IC50 [1]: 0.1 to 1 µM
IC50 [2]: > 5 µM

Structure (SMILES): CC[C@@]1(c2cccc(C(F)(F)F)c2)C2=CN=NC2NC2=C1C(=O)N(c1ccccc1)C2 (some centres not stated) [US20250313563, Compound 945377]
IC50 [1]: 0.1 to 1 µM
IC50 [2]: 1 to 5 µM

Structure (SMILES): CC[C@@]1(c2cccc(-c3ccnc(C)c3)c2)C2=CN=NC2NC2=C1C(=O)CC(C)(C)[C@H]2F (some centres not stated) [US20250313563, Compound 946104]
IC50 [1]: 0.1 to 1 µM
IC50 [2]: 0.1 to 1 µM

Structure (SMILES): C[C@@H]1C[C@@]2(CCN1S(C)(=O)=O)C1=C(N=NC1)NC1=C2C(=O)CC(C)(C)C1 [US20250313563, Compound 918315]
IC50 [1]: 0.1 to 1 µM
IC50 [2]: 0.1 to 1 µM

Structure (SMILES): CC[C@@]1(c2cccc(Br)c2)C2=CN=NC2NC2=C1C(=O)[C@H](F)C(C)(C)C2 (some centres not stated) [US20250313563, Compound 835313]
IC50 [1]: > 5 µM
IC50 [2]: > 5 µM

Structure (SMILES): CC[C@]1(c2cccc(C(F)(F)F)c2)C2=CN=NC2NC2=C1C(=O)N(c1cnc(OC)nc1)[C@@H](C)C2 (some centres not stated) [US20250313563, Compound 949352]
IC50 [1]: 0.1 to 1 µM
IC50 [2]: 1 to 5 µM

Structure (SMILES): CC1(C)CC(=O)C2=C(C1)NC1=C(CN=N1)C21COC2(CN(C(=O)OC(C)(C)C)C2)C1 (configuration not stated) [US20250313563, Compound 911083]
IC50 [1]: 0.1 to 1 µM
IC50 [2]: 1 to 5 µM

Structure (SMILES): CC[C@@]1(c2cccc(C(C)C)c2)C2=CN=NC2NC2=C1C(=O)CC(C)(C)C2 (some centres not stated) [US20250313563, Compound 810375]
IC50 [1]: 1 to 5 µM
IC50 [2]: > 5 µM

Structure (SMILES): CC1(C)CC(=O)C2=C(C1)NC1=C(CN=N1)C21CN(C(=O)OCc2ccccc2)C1 [US20250313563, Compound 889568]
IC50 [1]: 0.1 to 1 µM
IC50 [2]: 1 to 5 µM

Structure (SMILES): CC(=O)N1CC[C@@]2(C1)C[C@@]1(CO2)C2=C(N=NC2)NC2=C1C(=O)CC(C)(C)C2 [US20250313563, Compound 948320]
IC50 [1]: 0.1 to 1 µM
IC50 [2]: 1 to 5 µM

Structure (SMILES): CCC1(c2cccc(-c3ccnc(C)n3)c2)C2=CN=NC2NC2=C1C(=O)CC(C)(C)C2 (configuration not stated) [US20250313563, Compound 948088]
IC50 [1]: 0.1 to 1 µM
IC50 [2]: 1 to 5 µM

Structure (SMILES): CC[C@]1(c2cccc(N3CCOCC3)c2)C2=C(CC(C)(C)NC2=O)NC2N=NC(C(F)(F)F)=C21 (some centres not stated) [US20250313563, Compound 949000]
IC50 [1]: 0.1 to 1 µM
IC50 [2]: 0.1 to 1 µM

Structure (SMILES): CC(C)(C)CC1=C2C(N=N1)NC1=C(C(=O)CC(C)(C)C1)[C@]21CCc2ccc(F)cc21 (some centres not stated) [US20250313563, Compound 789504]
IC50 [1]: 1 to 5 µM
IC50 [2]: 0.1 to 1 µM

Structure (SMILES): CC[C@]1(c2cccc(-c3cn(C)nc3C)c2)C2=C(CC(C)(C)NC2=O)NC2N=NC(Cl)=C21 (some centres not stated) [US20250313563, Compound 949329]
IC50 [1]: 1 to 5 µM
IC50 [2]: > 5 µM

Structure (SMILES): CC[C@@]1(c2cccc(-c3ccnn3C)c2)C2=CN=NC2NC2=C1C(=O)NC(C)(C)C2 (some centres not stated) [US20250313563, Compound 927390]
IC50 [1]: 0.1 to 1 µM
IC50 [2]: > 5 µM

Structure (SMILES): CC[C@]1(c2ccccc2)C2=CN=NC2NC2=C1C(=O)[C@@H](F)C(C)(C)C2 (some centres not stated) [US20250313563, Compound 957405]
IC50 [1]: 0.1 to 1 µM
IC50 [2]: 1 to 5 µM

Structure (SMILES): CC[C@]1(c2cccc(-c3cn(C)nc3C(C)C)c2)C2=C(CC(C)(C)CC2=O)NC2N=NC(C)=C21 (some centres not stated) [US20250313563, Compound 913040]
IC50 [1]: 0.1 to 1 µM
IC50 [2]: 1 to 5 µM

Structure (SMILES): CC[C@]1(c2cccc(-c3cc(C4CCCC4)nn3C)c2)C2=CN=NC2NC2=C1C(=O)NC(C)(C)C2 (some centres not stated) [US20250313563, Compound 949509]
IC50 [1]: > 5 µM
IC50 [2]: > 5 µM

Structure (SMILES): CC[C@@]1(c2cccc(C3CN(C(C)=O)C3)c2)C2=CN=NC2NC2=C1C(=O)CC(C)(C)C2 (some centres not stated) [US20250313563, Compound 949132]
IC50 [1]: > 5 µM
IC50 [2]: > 5 µM

Structure (SMILES): CCC1(c2cccc(C(F)(F)F)c2)C2=C(N=NC2)NC2=C1C(=O)CC2 (configuration not stated) [US20250313563, Compound 949639]
IC50 [1]: 0.1 to 1 µM
IC50 [2]: 0.1 to 1 µM

Structure (SMILES): CC[C@]1(c2cccc(Br)c2)C2=CN=NC2NC2=C1C(=O)[C@@H](F)C(C)(C)C2 (some centres not stated) [US20250313563, Compound 835315]
IC50 [1]: 0.1 to 1 µM
IC50 [2]: 1 to 5 µM

Structure (SMILES): CCC1(c2cccc(-c3ccnc(C)c3)c2)C2=C(CC(C)(C)CC2=O)NC2N=NC(C)=C21 (configuration not stated) [US20250313563, Compound 883987]
IC50 [1]: < 0.1 µM
IC50 [2]: 0.1 to 1 µM

Structure (SMILES): CC1(C)CC(=O)C2=C(C1)NC1=C(CN=N1)C21CCN(S(=O)(=O)c2ccc(C(F)F)cc2)CC1 [US20250313563, Compound 947248]
IC50 [1]: < 0.1 µM
IC50 [2]: < 0.1 µM

Structure (SMILES): CC[C@]1(c2cccc(-c3cnn(C)c3C#N)c2)C2=CN=NC2NC2=C1C(=O)NC(C)(C)C2 (some centres not stated) [US20250313563, Compound 948814]
IC50 [1]: > 5 µM
IC50 [2]: > 5 µM

Continued, values first:

IC50 [1]: < 0.1 µM
IC50 [2]: < 0.1 µM
Structure (SMILES): CCCS(=O)(=O)c1cccc(C2(CC)C3=CN=NC3NC3=C2C(=O)CC(C)(C)C3)c1 (configuration not stated) [US20250313563, Compound 917131]

IC50 [1]: < 0.1 µM
IC50 [2]: < 0.1 µM
Structure (SMILES): Cc1cc(S(=O)(=O)N2CCC3(CC2)C2=C(N=NC2)NC2=C3C(=O)CC(C)(C)C2)n(C)n1 [US20250313563, Compound 947608]

IC50 [1]: < 0.1 µM
IC50 [2]: < 0.1 µM and 0.1 to 1 µM
Structure (SMILES): CCC1(c2cccc(N3CCCCC3)c2)C2=C(CC(C)(C)NC2=O)NC2N=NC(C(F)(F)F)=C21 (configuration not stated) [US20250313563, Compound 947861]

IC50 [1]: < 0.1 µM
IC50 [2]: < 0.1 µM and 1 to 5 µM
Structure (SMILES): CC[C@]1(c2cccc(-c3ccnn3C)c2)C2=CN=NC2NC2=C1C(=O)CC(C)(C)[C@H]2F (some centres not stated) [US20250313563, Compound 957507]

IC50 [1]: < 0.1 µM
IC50 [2]: < 0.1 µM
Structure (SMILES): CC1(C)CC(=O)C2=C(C1)NC1=C(CN=N1)C21CCN(S(=O)(=O)c2cnn(-c3ccccc3)c2)CC1 [US20250313563, Compound 947904]

IC50 [1]: < 0.1 µM
IC50 [2]: 1 to 5 µM
Structure (SMILES): CCC1(c2cccc(-c3cnn(C)n3)c2)C2=CN=NC2NC2=C1C(=O)CC(C)(C)C2 (configuration not stated) [US20250313563, Compound 947492]

IC50 [1]: < 0.1 µM
IC50 [2]: < 0.1 µM
Structure (SMILES): CC[C@]1(c2cccc(-c3cnn(C)c3)c2)C2=C(CC(C)(C)CC2=O)NC2N=NC(C(F)(F)F)=C21 (some centres not stated) [US20250313563, Compound 811565]

IC50 [1]: < 0.1 µM
IC50 [2]: < 0.1 µM
Structure (SMILES): CC[C@]1(c2cccc(N(C)C(C)=O)c2)C2=CN=NC2NC2=C1C(=O)CC(C)(C)C2 (some centres not stated) [US20250313563, Compound 810358]

IC50 [1]: < 0.1 µM
IC50 [2]: 0.1 to 1 µM
Structure (SMILES): CC[C@]1(c2cccc(Br)c2)C2=CN=NC2NC2=C1C(=O)C[C@@H](C(F)(F)F)C2 (some centres not stated) [US20250313563, Compound 826653]

IC50 [1]: < 0.1 µM
IC50 [2]: < 0.1 µM and 0.1 to 1 µM
Structure (SMILES): CCC1(c2cccc(-c3c(F)cncc3OC)c2)C2=CN=NC2NC2=C1C(=O)CC(C)(C)C2 (configuration not stated) [US20250313563, Compound 945704]

IC50 [1]: < 0.1 µM
IC50 [2]: < 0.1 µM
Structure (SMILES): CCC1(c2cccc(-c3ccncc3C)c2)C2=C(CC(C)(C)NC2=O)NC2N=NC(C)=C21 (configuration not stated) [US20250313563, Compound 945599]

IC50 [1]: < 0.1 µM
IC50 [2]: 0.1 to 1 µM
Structure (SMILES): C[C@]1(c2ccccc2)C2=C(N=NC2)NC2=C1C(=O)CC1(CCCC1)C2 [US20250313563, Compound 792338]

IC50 [1]: < 0.1 µM
IC50 [2]: < 0.1 µM
Structure (SMILES): CC[C@]1(c2cccc(S(C)(=O)=O)c2)C2=C(CC(C)(C)NC2=O)NC2N=NC(C)=C21 (some centres not stated) [US20250313563, Compound 947811]

IC50 [1]: < 0.1 µM
IC50 [2]: < 0.1 µM
Structure (SMILES): CC1(C)CC(=O)C2=C(C1)NC1=C(CN=N1)C21CCN(S(=O)(=O)c2ccccc2Cl)CC1 [US20250313563, Compound 945655]

IC50 [1]: < 0.1 µM
IC50 [2]: < 0.1 µM
Structure (SMILES): CCC1(c2cccc(-c3ccnc4ccccc34)c2)C2=CN=NC2NC2=C1C(=O)CC(C)(C)C2 (configuration not stated) [US20250313563, Compound 932631]

IC50 [1]: < 0.1 µM
IC50 [2]: < 0.1 µM
Structure (SMILES): CC1(C)CC(=O)C2=C(C1)NC1=C(CN=N1)C21CCN(S(=O)(=O)c2cnn3c2OCCC3)CC1 [US20250313563, Compound 947483]

IC50 [1]: < 0.1 µM
IC50 [2]: < 0.1 µM
Structure (SMILES): CC1(C)CC(=O)C2=C(C1)NC1=C(CN=N1)C21CCN(S(=O)(=O)c2ccc(Cl)c(Cl)c2)CC1 [US20250313563, Compound 945660]

IC50 [1]: < 0.1 µM
IC50 [2]: < 0.1 µM
Structure (SMILES): CC[C@@]1(c2cccc(N(C)c3ccccn3)c2)C2=CN=NC2NC2=C1C(=O)CC(C)(C)C2 (some centres not stated) [US20250313563, Compound 875568]

IC50 [1]: < 0.1 µM
IC50 [2]: 0.1 to 1 µM
Structure (SMILES): CCc1cc(-c2cccc([C@]3(CC)C4=CN=NC4NC4=C3C(=O)NC(C)(C)C4)c2)ccn1 (some centres not stated) [US20250313563, Compound 948370]

IC50 [1]: < 0.1 µM
IC50 [2]: 0.1 to 1 µM
Structure (SMILES): CCC1(c2cccc(C(F)(F)F)c2)C2=CN=NC2NC2=C1C(=O)NC(C)(C)C2F (configuration not stated) [US20250313563, Compound 819622]

IC50 [1]: < 0.1 µM
IC50 [2]: 0.1 to 1 µM
Structure (SMILES): CC1(C)CC(=O)C2=C(C1)NC1=C(CN=N1)[C@]2(C)c1cccc(-c2ccccc2)c1 [US20250313563, Compound 801367]
